The record followed here is EPA's ToxValDB 9.5 (doi:10.2903/j.efsa.2014.3764).

The subject of one series is Aphidius rhopalosiphi. Put plainly: LR50; higher = less toxic. Conditions: acute; duration: 48 hours; mortality.
For a further series, the system named is Canidae. Conditions: oral, Dog Other, clinical chemistry.
For another series, the system named is Tagia sp. Conditions: acute; duration: 14 days; mortality.
The test system of a further series is Daphnia magna. Conditions: chronic/long-term; duration: 21 days; mortality.
For another series, the system named is Apis mellifera. The note with it: acute, duration: 48 hours, mortality.
Another series concerns Anas platyrhynchos. The note with it: oral, feed.
A further series relates to Colinus virginianus. Conditions: acute; oral; mortality.
A further series has as its system Oncorhynchus mykiss. Conditions: chronic/long-term; duration: 87 days; mortality.
A further series concerns Cyprinus carpio. The note with it: acute; duration: 96 hours; mortality.

Broadly, the NOAEL is the highest tested level that showed no adverse finding. With `CCS(=O)(=O)c1nc2ccccn2c1S(=O)(=O)NC(=O)Nc1nc(OC)cc(OC)n1` [Sulfosulfuron], the LR50 in the series on Aphidius rhopalosiphi was greater than 29.7 g/ha. In addition, the NOAEL came to 100 mg/kg-day with Canidae (chronic, duration: 1 years); 100 mg/kg-day in the series on Canidae (subchronic, duration: 90 days); 24.4 mg/kg-day in the series with Rattus norvegicus (chronic, duration: 2 years, histopathology: nonneoplastic); 312 mg/kg-day in the series with Rattus norvegicus (reproduction developmental, duration: 22 months, oral, diet, body weight). Also, the values for the LC50 in the series on Tagia sp. and with Cyprinus carpio were greater than 848 mg/kg and greater than 91 µg/mL, respectively. Moreover, the values for the NOEC in the series on Daphnia magna and in the series on Oncorhynchus mykiss were 102 mg/L and 100 mg/L, respectively. The LD50 was greater than 5000 mg/kg-day with Rattus norvegicus (acute, oral, mortality); greater than 25 µg/piece in the series with Apis mellifera (dermal); greater than 30 µg/piece in the series with Apis mellifera (oral, unspecified); greater than 1350 mg/kg-day in the series with Anas platyrhynchos (short-term, mortality); greater than 2250 mg/kg-day in the series on Colinus virginianus. Besides, in the series with Anas platyrhynchos (reproductive), the NOEL stood at 33.7 mg/kg-day.
